Calls of active or inactive are those of the source. The calls are words filed in the database; no cut-off is given here.
Columns and labels:
[1] = Inhibition of rat recombinant geranylgeranyltransferase type I expressed in Escherichia coli assessed as reduction in geranylgeranylation of RhoA incubated for 30 mins in presence of [3H]GGPP by scintillation counting assay relative to control
Jurkat = experiment: Antiproliferative activity against human Jurkat cells assessed as inhibition of cell proliferation incubated for 72 hrs by CCK8 assay; format: functional, cell-based
MCF7 = experiment: Antiproliferative activity against human MCF7 cells assessed as inhibition of cell proliferation incubated for 6 days by CCK8 assay; format: functional, cell-based
HEK293 = experiment: Inhibition of geranylgeranyltransferase type I in HEK293 cells expressing Myc-HA-tagged Rheb-WT assessed as effect on unprenylated Rap1 accumulation at 2.5 uM incubated for 48 hrs by SDS-PAGE and immunoblot analysis; format: cell-based; conditions: Homo sapiens
[2] = molecular target: Protein farnesyltransferase (Homo sapiens) (UniProt P49354+P49356); experiment: Inhibition of FTase in HEK293 cells assessed as reduction in H-ras farnesylation at 2.5 to 10 uM incubated for 48 hrs by SDS-PAGE and immunoblot analysis; format: cell-based
[3] = molecular target: T1, Geranylgeranyl transferase type-2 (Homo sapiens) (UniProt P53611+Q92696); experiment: Inhibition of RabGGTase in HEK293 cells assessed as reduction in geranylgeranylation of Rab5b protein at 5 to 10 uM incubated for 48 hrs by SDS-PAGE and immunoblot analysis; format: cell-based
[4] = molecular target: T1, Geranylgeranyl transferase type-2 (Homo sapiens); experiment: Inhibition of RabGGTase (unknown origin) at 100000 nM using YPTI as substrate protein and [3H]geranylgeranyl pyrophosphate incubated for 20 mins by scintillation counting assay; format: protein-complex assay
[5] = molecular target: Protein farnesyltransferase (Rattus norvegicus) (UniProt Q04631+Q02293); experiment: Inhibition of rat recombinant FTase alpha/beta expressed in Escherichia coli at 100000 nM using K-Ras4B as a substrate as and [3H]farnesyl pyrophosphate incubated for 30 mins by scintillation counting assay
K562 [6] = experiment: Induction of cell cycle arrest in human K562 cells assessed as accumulation at G1 phase incubated for 48 hrs by flow cytometry; format: functional, cell-based
K562 [7] = experiment: Induction of cell cycle arrest in human K562 cells assessed as reduction in accumulation at S phase incubated for 48 hrs by flow cytometry; format: functional, cell-based
Mus musculus = species on record: Mus musculus; experiment: Inhibition of geranylgeranyltransferase type I in mouse NIH/3T3 cells transfected with p21WAF1/CIP1 promoter-Luc assessed as induction of p21 CIP1/WAF1 expression by luciferase reporter gene assay; format: cell-based
PANC-1 [8] = experiment: Antitumor activity against human PANC1 cells xenografted in SCID mouse assessed as inhibition of tumor growth at 1.16 mg/kg, ip dosed six times per week and measured every 2 weeks; format: functional, organism-based
PANC-1 [9] = experiment: Antitumor activity against human PANC1 cells xenografted in SCID mouse assessed as inhibition of tumor growth at 1.16 mg/kg, ip dosed once time per week and measured every 2 weeks; format: functional, organism-based
[10] = Clearance in SCID mouse xenografted with human PANC1 cells at 1.16 mg/kg, ip dosed once or 6 times per week; format: ADME, organism-based; conditions: in vivo
PANC-1 [11] = experiment: Antitumor activity against human PANC1 cells xenografted in SCID mouse assessed as inhibition of tumor growth at 1.16 mg/kg, ip dosed 3 times per week and measured every 2 weeks up to day 14 to day 47; format: functional, organism-based
[12] = Toxicity in SCID mouse xenografted with human PANC1 cells assessed as effect on ALB level at 1.16 mg/kg, ip dosed 3 times per week and measured every 2 weeks up to day 14 to day 47; format: organism-based; conditions: in vivo, 336 h
[13] = Toxicity in SCID mouse xenografted with human PANC1 cells assessed as effect on ALT […] level at 1.16 mg/kg, ip dosed 3 times per week and measured every 2 weeks up to day 14 to day 47; format: organism-based; conditions: in vivo, 336 h
[14] = Toxicity in SCID mouse xenografted with human PANC1 cells assessed as effect on AST […] level at 1.16 mg/kg, ip dosed 3 times per week and measured every 2 weeks up to day 14 to day 47; format: organism-based; conditions: in vivo, 336 h
[15] = Toxicity in SCID mouse xenografted with human PANC1 cells assessed as effect on BUN level at 1.16 mg/kg, ip dosed 3 times per week and measured every 2 weeks up to day 14 to day 47; format: organism-based; conditions: in vivo, 336 h
[16] = Toxicity in SCID mouse xenografted with human PANC1 cells assessed as effect on creatinine level at 1.16 mg/kg, ip dosed 3 times per week and measured every 2 weeks up to day 14 to day 47; format: organism-based; conditions: in vivo, 336 h
[17] = Toxicity in SCID mouse xenografted with human PANC1 cells assessed as effect on cholesterol level at 1.16 mg/kg, ip dosed 3 times per week and measured every 2 weeks up to day 14 to day 47; format: organism-based; conditions: in vivo, 336 h
[18] = Toxicity in SCID mouse xenografted with human PANC1 cells assessed as effect on CK level at 1.16 mg/kg, ip dosed 3 times per week and measured every 2 weeks up to day 14 to day 47; format: organism-based; conditions: in vivo, 336 h
[19] = Toxicity in SCID mouse xenografted with human PANC1 cells assessed as effect on ALP level at 1.16 mg/kg, ip dosed 3 times per week and measured every 2 weeks up to day 14 to day 47; format: organism-based; conditions: in vivo, 336 h
[20] = Toxicity in SCID mouse xenografted with human PANC1 cells assessed as effect on GLU level at 1.16 mg/kg, ip dosed 3 times per week and measured every 2 weeks up to day 14 to day 47; format: organism-based; conditions: in vivo, 336 h
[21] = Toxicity in SCID mouse xenografted with human PANC1 cells assessed as effect on CA level at 1.16 mg/kg, ip dosed 3 times per week and measured every 2 weeks up to day 14 to day 47; format: organism-based; conditions: in vivo, 336 h
[22] = Toxicity in SCID mouse xenografted with human PANC1 cells assessed as effect on RBC level at 1.16 mg/kg, ip dosed 3 times per week and measured every 2 weeks up to day 14 to day 47; format: organism-based; conditions: in vivo, 336 h
[23] = Toxicity in SCID mouse xenografted with human PANC1 cells assessed as effect on WBC level at 1.16 mg/kg, ip dosed 3 times per week and measured every 2 weeks up to day 14 to day 47; format: organism-based; conditions: in vivo, 336 h
[24] = Toxicity in SCID mouse xenografted with human PANC1 cells assessed as effect on NE level at 1.16 mg/kg, ip dosed 3 times per week and measured every 2 weeks up to day 14 to day 47; format: organism-based; conditions: in vivo, 336 h
[25] = Toxicity in SCID mouse xenografted with human PANC1 cells assessed as effect on LY level at 1.16 mg/kg, ip dosed 3 times per week and measured every 2 weeks up to day 14 to day 47; format: organism-based; conditions: in vivo, 336 h
[26] = Toxicity in SCID mouse xenografted with human PANC1 cells assessed as effect on PLT level at 1.16 mg/kg, ip dosed 3 times per week and measured every 2 weeks up to day 14 to day 47; format: organism-based; conditions: in vivo, 336 h

SMILES: Cc1ccccc1S(=O)(=O)N1[C@@H](c2ccc(Cl)cc2)C(C(=O)N[C@@H](Cc2ccccc2)C(N)=O)=C[C@H]1C(C)(C)C
- IC50 [1]: 1 to 7.7 µM
- GI50 (Jurkat): 4.89 to 6.1 µM
- inhibition (MCF7): Dose-dependent effect
- inhibition (HEK293): Active
- inhibition [2]: inactive
- inhibition [3]: inactive
- inhibition [4]: inactive
- inhibition [5]: inactive
- Activity (K562 [6]): Dose-dependent effect
- Activity (K562 [7]): Dose-dependent effect
- Activity (Mus musculus): Dose-dependent effect
- TGI (PANC-1 [8]): Active
- TGI (PANC-1 [9]): Active
- CL/F [10]: 0.0173 mL/min
- TGI (PANC-1 [11]): Active
- Activity [12]: Non-Toxic
- Activity [13]: Non-Toxic
- Activity [14]: Non-Toxic
- Activity [15]: Non-Toxic
- Activity [16]: Non-Toxic
- Activity [17]: Non-Toxic
- Activity [18]: Non-Toxic
- Activity [19]: Non-Toxic
- Activity [20]: Non-Toxic
- Activity [21]: Non-Toxic
- Activity [22]: Non-Toxic
- Activity [23]: Non-Toxic
- Activity [24]: Non-Toxic
- Activity [25]: Non-Toxic
- Activity [26]: Non-Toxic

From ChEMBL document CHEMBL4421722, “Inhibitors of protein prenyltransferases” (2013)
